Data as given in ChEMBL document CHEMBL1201862, “PubChem BioAssay data set” (2004).
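Method: 48-hour compound exposure of cells in 96-well plates, five concentrations, linear interpolation of endpoints. GI50: concentration for 50% inhibition of growth.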 The source made the active and inactive calls. Rule as the data show it: active = GI50 up to about 1.1 µM and inactive = higher.

Test system: BT-549
Assay: NCI-60 cell line screen, 48 h

| SMILES | GI50 |
| --- | --- |
| c1ccc2[nH]c3nc4ccccc4c-3cc2c1 | 0.512 µM (active) |
| O=C1Sc2ccc(Br)cc2C(=O)Sc2ccccc21 | 12.5 µM (inactive) |
| CCc1nc(N)nc(N)c1-c1ccc(Cc2ccccc2)c([N+](=O)[O-])c1 | 13 µM (inactive) |
| COC(=O)[C@@H](O)[C@]1(C(=O)OC)C2O[C@@H](OC)[C@@H]1CCCCCC[C@H]2O | > 100 µM (inactive) |
| CN(C)c1ccc(C2CC(c3ccc4ccccc4c3O)=NN2)cc1 (centres undefined) | 39.1 µM (inactive) |
| CN(C)c1ccc(C(Cc2ccccc2)C2NC(=S)NC2=O)cc1 (centres undefined) | > 100 µM (inactive) |
| CC(C)(C)[Si](C)(C)OCC1OC(n2ccc(=O)[nH]c2=O)C(O[Si](C)(C)C(C)(C)C)[C@]12O[C@@H]2CO (some centres undefined) | 3.9 µM (inactive) |
| C#C[C@]1(O)[C@@H](CO)O[C@@H](n2ccc(N)nc2=O)[C@@H]1O | 0.0834 µM (active) |
| CC1=NN(c2ccccc2)C(=O)/C1=C\c1c(C)[nH]n(-c2ccccc2)c1=O | > 100 µM (inactive) |
| CC(C)C(=O)OCC1CCCN2CCCCC12 (centres undefined) | 21.5 µM (inactive) |
| C=C(C)C(=O)OC1C[C@H](COC(C)=O)C2CC=C(C)C2C2OC(=O)C(=C)[C@H]12 (some centres undefined) | 4.13 µM (inactive) |
| COC(=O)c1cc(OCc2cc(OCc3ccc(Br)cc3)cc(OCc3ccc(Br)cc3)c2)cc(OCc2cc(OCc3ccc(Br)cc3)cc(OCc3ccc(Br)cc3)c2)c1 | > 100 µM (inactive) |
| O=c1cc(N2CCN(c3cc(=O)n4ccccc4n3)CC2)oc2ccccc12 | 68.1 µM (inactive) |
| COc1ccc(CNc2nc(NCc3ccc(OC)cc3)nc(NC3CCCCC3)n2)cc1 | 4.08 µM (inactive) |
| CO[C@H]1[C@@H](O)[C@@H](O)O[C@@H](O[C@H]2CC[C@@]3(C)[C@H](CC[C@@H]4[C@@H]3[C@H](O)C[C@]3(C)[C@@H](C5=CC(=O)OC5)CC[C@]43O)C2)[C@@H]1O | 0.151 µM (active) |
| CC(=O)O[C@@H]1CC2[C@@H](CCC3Cc4nc5c(nc4C[C@@]32C)CC2CC[C@@H]3C(CC[C@@]4(C)C3CC[C@@H]4C(C)CCCC(C)C)[C@@]2(C)C5)C2C[C@@H]3OC4(CCC(C)CO4)C(C)[C@@H]3[C@]21C (some centres undefined) | > 100 µM (inactive) |
| COC1(OC)CCN(Cc2ccccc2)C1=O | 17.2 µM (inactive) |

| SMILES | GI50 |
| --- | --- |
| COc1ccc(/C=C2\C[C@H]3[C@@H]4CC=C5C[C@@H](OC(C)=O)CC[C@]5(C)[C@H]4CC[C@]3(C)\C2=N\O)cc1OC | > 100 µM (inactive) |
| CCCCCCCCCCCC(=O)Oc1c(Cl)cc(Cl)c(OC(=O)C(=O)Oc2c(Cl)cc(Cl)c(OC(=O)CCCCCCCCCCC)c2Cl)c1Cl | > 100 µM (inactive) |
| CC(=O)NC(CS/N=N/c1[nH]cnc1C(N)=O)C(=O)O (centres undefined) | 53 µM (inactive) |
| Clc1ccccc1/C=c1\nc(-c2ccccc2)n2c1nc1ccccc12 | 18.2 µM (inactive) |
| Cc1nc2c(=O)[nH]c(=O)nc-2n(CCO)c1C | > 100 µM (inactive) |
| C/C=C(/C)C(=O)O[C@@H]1CCN2CC[C@H](COC(=O)/C(=C/C)CO)C12 (some centres undefined) | > 100 µM (inactive) |
| CC(=O)C1COC(O)C1C (centres undefined) | 30 µM (inactive) |
| C=CCC1CC(n2cc(C)c(=O)[nH]c2=O)OC1CO[Si](C)(C)C(C)(C)C (centres undefined) | 16 µM (inactive) |
| COc1ccccc1/C=C/c1c(N)ncnc1Nc1cccc(Cl)c1 | 19.7 µM (inactive) |
| NC(=O)NOCC1NC(=O)NC1=O (centres undefined) | > 100 µM (inactive) |
| COC(=O)C1=C([C@H]2COC(C)(C)O2)[C@H]2C[C@@H]1[C@@H]1OC(C)(C)O[C@@H]12 | > 100 µM (inactive) |
| CNc1ccc(C(=O)CC(O)CCC(C)C2OC(=O)CC(O)CC(=O)CC(O)CC(O)CC(O)CC(O)CC3(O)CC(O)C(C(=O)NCCN(C)C)C(CC(OC4OC(C)C(O)C(NC(=O)CN5CCN(C)CC5)C4O)\C=C/C=C\C=C/C=C/C=C/C=C\C=C/C2C)O3)cc1 (centres undefined) | 11.2 µM (inactive) |
| c1cc(C[S+]2CCCC2)oc1C[S+]1CCCC1 | > 100 µM (inactive) |
| O=C1c2ccccc2-c2c1c1ccccc1c(=O)n2Cc1ccco1 | > 100 µM (inactive) |
| O=c1c2cc([N+](=O)[O-])ccc2n2n1Cc1ccccc1C2 | 76.2 µM (inactive) |
| c1ccc(Nc2nn3c(CCCCCCCCc4nnc5sc(Nc6ccccc6)nn45)nnc3s2)cc1 | 31.5 µM (inactive) |
| CCCC(=O)NC(Nc1ccc(F)cc1)(C(F)(F)F)C(F)(F)F | 80 µM (inactive) |
